According to ChEMBL document CHEMBL1201862, “PubChem BioAssay data set” (2004):
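A five-concentration, 48-hour dose response in 96-well plates underlies each endpoint, interpolated linearly between surrounding concentrations. At the GI50, growth is halved.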 The source made the active and inactive calls. No stated cut-off is given here; in the data, active = GI50 up to about 1.1 µM and inactive = higher.

Legend:
Assay in all cases: DTP human tumour cell line panel, 48 h
A549 = system: A549
ACHN = system: ACHN
COLO 205 = system: COLO 205
DU-145 = system: DU-145
HCC 2998 = system: HCC 2998
HL-60 = system: HL-60
HOP-62 = system: HOP-62
HT-29 = system: HT-29
IGROV-1 = system: IGROV-1
K562 = system: K562
MDA-MB-231 = system: MDA-MB-231
NCI-H522 = system: NCI-H522
OVCAR-3 = system: OVCAR-3
OVCAR-8 = system: OVCAR-8
SK-MEL-5 = system: SK-MEL-5
SNB-19 = system: SNB-19
SNB-75 = system: SNB-75
SW-620 = system: SW-620
TK-10 = system: TK-10
UACC-257 = system: UACC-257

| SMILES | GI50 (A549) | GI50 (ACHN) | GI50 (COLO 205) | GI50 (DU-145) | GI50 (HCC 2998) | GI50 (HL-60) | GI50 (HOP-62) | GI50 (HT-29) | GI50 (IGROV-1) | GI50 (K562) | GI50 (MDA-MB-231) | GI50 (NCI-H522) | GI50 (OVCAR-3) | GI50 (OVCAR-8) | GI50 (SK-MEL-5) | GI50 (SNB-19) | GI50 (SNB-75) | GI50 (SW-620) | GI50 (TK-10) | GI50 (UACC-257) |
| --- | --- | --- | --- | --- | --- | --- | --- | --- | --- | --- | --- | --- | --- | --- | --- | --- | --- | --- | --- | --- |
| C(=N\Nc1nnc2c(n1)[nH]c1ccccc12)/c1cccnc1 | > 100 µM (inactive) | > 100 µM (inactive) | > 100 µM (inactive) | > 100 µM (inactive) | > 100 µM (inactive) | > 100 µM (inactive) | > 100 µM (inactive) | > 100 µM (inactive) | > 100 µM (inactive) | > 100 µM (inactive) | > 100 µM (inactive) | > 100 µM (inactive) | > 100 µM (inactive) | > 100 µM (inactive) | > 100 µM (inactive) | > 100 µM (inactive) | > 100 µM (inactive) | > 100 µM (inactive) | > 100 µM (inactive) | > 100 µM (inactive) |
| CC1=NN(c2ccc(S(=O)(=O)O)cc2)C2(C1)SCC(=O)N2c1nc2ccccc2s1 (stereo not given) | > 100 µM (inactive) | > 100 µM (inactive) | > 100 µM (inactive) | > 100 µM (inactive) | > 100 µM (inactive) | 0.195 µM (active) | > 100 µM (inactive) | > 100 µM (inactive) | > 100 µM (inactive) | > 100 µM (inactive) | > 100 µM (inactive) | > 100 µM (inactive) | > 100 µM (inactive) | > 100 µM (inactive) | > 100 µM (inactive) | > 100 µM (inactive) | > 100 µM (inactive) | > 100 µM (inactive) | > 100 µM (inactive) | > 100 µM (inactive) |
| CCCCCCCCCCCCCCCCCCNc1ccn(C2OC(COP(=O)(O)OCC(COP(=O)(O)OCC3OC(n4cc(C)c(=O)[nH]c4=O)CC3N=[N+]=[N-])OCCCCCCCCCCCCCCCCCC)C(O)C2O)c(=O)n1 (stereo not given) | 51.6 µM (inactive) | > 100 µM (inactive) | 54.5 µM (inactive) | > 100 µM (inactive) | 99.1 µM (inactive) | > 100 µM (inactive) | > 100 µM (inactive) | 28.5 µM (inactive) | 52.2 µM (inactive) | > 100 µM (inactive) | 44.3 µM (inactive) | 12.6 µM (inactive) | > 100 µM (inactive) | 60.5 µM (inactive) | 86.5 µM (inactive) | 19.4 µM (inactive) | 49 µM (inactive) | > 100 µM (inactive) | > 100 µM (inactive) | 50.1 µM (inactive) |
| CCOC(=O)C(Cc1ccc(OC(=O)c2ccc(OC)cc2OC)cc1)NC(=O)C(F)(F)F (stereo not given) | 36.2 µM (inactive) | 17.2 µM (inactive) | 18.7 µM (inactive) | 19.8 µM (inactive) | 16.5 µM (inactive) | 21.9 µM (inactive) | 21.3 µM (inactive) | 20.7 µM (inactive) | 19.2 µM (inactive) | 29.6 µM (inactive) | 57.7 µM (inactive) | 17.9 µM (inactive) | 19.5 µM (inactive) | 22.8 µM (inactive) | 37.3 µM (inactive) | 33.6 µM (inactive) | 16.4 µM (inactive) | > 100 µM (inactive) | 22.2 µM (inactive) | 15.3 µM (inactive) |
| CC(=O)OC1CCC2(C)C(=CCC3C4CCC5(OC6CC(C)CN(C(C)=O)C6C5C)C(C)=C4C(=O)C32)C1 (stereo not given) | 14.3 µM (inactive) | 25.5 µM (inactive) | 14 µM (inactive) | 30.8 µM (inactive) | 13.7 µM (inactive) | 81.3 µM (inactive) | 20.4 µM (inactive) | 19.9 µM (inactive) | 14.4 µM (inactive) | 16.3 µM (inactive) | 17.2 µM (inactive) | 14.9 µM (inactive) | 18.8 µM (inactive) | 18.5 µM (inactive) | 10 µM (inactive) | 13.7 µM (inactive) | 19 µM (inactive) | 66.8 µM (inactive) | 24.3 µM (inactive) | 13.6 µM (inactive) |
| COP(=O)(/C=C/c1cc(C(=O)OCc2ccccc2)n(S(=O)(=O)c2ccccc2)c1)OC | > 100 µM (inactive) | > 100 µM (inactive) | > 100 µM (inactive) | > 100 µM (inactive) | > 100 µM (inactive) | > 100 µM (inactive) | > 100 µM (inactive) | > 100 µM (inactive) | > 100 µM (inactive) | > 100 µM (inactive) | > 100 µM (inactive) | > 100 µM (inactive) | > 100 µM (inactive) | > 100 µM (inactive) | > 100 µM (inactive) | > 100 µM (inactive) | 57.1 µM (inactive) | > 100 µM (inactive) | > 100 µM (inactive) | > 100 µM (inactive) |
| COC(=O)/C=C/C(=O)Nc1cc(Cl)c(Cl)cc1CC(=O)N(C)[C@H]1CCCC[C@@H]1N1CCCC1 | 21.5 µM (inactive) | 2.85 µM (inactive) | 1.54 µM (inactive) | 5.02 µM (inactive) | 7.67 µM (inactive) | 2.06 µM (inactive) | 16.9 µM (inactive) | 7.8 µM (inactive) | 7.21 µM (inactive) | 3.72 µM (inactive) | 13.3 µM (inactive) | 1.79 µM (inactive) | 3.27 µM (inactive) | 5.27 µM (inactive) | 8.67 µM (inactive) | 18.3 µM (inactive) | 13.8 µM (inactive) | 3.63 µM (inactive) | 2.29 µM (inactive) | 3.05 µM (inactive) |
| CC1Cc2c(cc(N)nc2Br)NC1=O (stereo not given) | 63.7 µM (inactive) | 64.3 µM (inactive) | > 100 µM (inactive) | > 100 µM (inactive) | > 100 µM (inactive) | > 10 µM (inactive) | > 100 µM (inactive) | > 100 µM (inactive) | > 100 µM (inactive) | 63.4 µM (inactive) | > 100 µM (inactive) | > 100 µM (inactive) | > 100 µM (inactive) | > 100 µM (inactive) | 85.1 µM (inactive) | > 100 µM (inactive) | 74.8 µM (inactive) | > 100 µM (inactive) | > 100 µM (inactive) | > 100 µM (inactive) |
| O=C(NNCC(F)(F)F)c1ccncc1 | > 100 µM (inactive) | > 100 µM (inactive) | > 100 µM (inactive) | > 100 µM (inactive) | > 100 µM (inactive) | > 100 µM (inactive) | > 100 µM (inactive) | > 100 µM (inactive) | > 100 µM (inactive) | > 100 µM (inactive) | > 100 µM (inactive) | > 100 µM (inactive) | > 100 µM (inactive) | > 100 µM (inactive) | > 100 µM (inactive) | > 100 µM (inactive) | > 100 µM (inactive) | > 100 µM (inactive) | > 100 µM (inactive) | > 100 µM (inactive) |
| O/N=N\c1nc(-c2cccnc2)nc2ccccc12 | > 100 µM (inactive) | > 100 µM (inactive) | 75.5 µM (inactive) | > 100 µM (inactive) | 87.9 µM (inactive) | > 100 µM (inactive) | > 100 µM (inactive) | 47.8 µM (inactive) | > 100 µM (inactive) | > 100 µM (inactive) | > 100 µM (inactive) | > 100 µM (inactive) | > 100 µM (inactive) | > 100 µM (inactive) | > 100 µM (inactive) | > 100 µM (inactive) | 33.3 µM (inactive) | > 100 µM (inactive) | > 100 µM (inactive) | > 100 µM (inactive) |
